Measured values from patent publication US20240226045A9, “RUMEN-PROTECTED COMPOSITIONS AND METHODS OF MAKING THE SAME” (Balchem Corporation, priority 2022, published 2024).

Key:
[1] = Methionine pellet pH test; type: physicochemical; conditions: 2 hours at 39° C.
Protocol: The pellets were then incubated in a pH 2.0 buffer and a pH 7.0 buffer for 2 hours at 39° C. For comparison, pellets consisting of methionine were also incubated in the buffer solutions. The results are shown in FIG. 10 and in Table 26 below.

[2] = Particle size distribution of histidine hydrochloride monohydrate crystals by sieving; type: physicochemical
Source text: Histidine hydrochloride monohydrate crystals were sieved on Ro Tap equipment using a stack of US Mesh sieves to obtain a fraction ranging from 850 microns (20 US Mesh) to 250 microns (60 US Mesh) particle size. The fraction was chosen to remove very fine particles, which present a challenge to optimal microencapsulation.

Row | wt % Release ([1]; 0.01M Acid Buffer, pH 2.00) [wt %] | wt % Release ([1]; 0.05M Phosphate Buffer, pH 7.00) [wt %] | Difference ([2]; Pan, opening size <106 micron) [g] | Final (wt % of total output) ([2]; Pan, opening size <106 micron) | Final (wt % of total output) ([2]; US mesh sieve #20, opening size 850 micron) | Final (wt % of total output) ([2]; US mesh sieve #40, opening size 425 micron) | Final (wt % of total output) ([2]; US mesh sieve #60, opening size 250 micron) | Final (wt % of total output) ([2]; US mesh sieve #80, opening size 180 micron) | Final (wt % of total output) ([2]; US mesh sieve #100, opening size 150 micron) | Final (wt % of total output) ([2]; US mesh sieve #140, opening size 106 micron) | Difference ([2]; retained on US mesh sieve #20, opening size 850 micron) [g] | Difference ([2]; retained on US mesh sieve #40, opening size 425 micron) [g] | Difference ([2]; retained on US mesh sieve #60, opening size 250 micron) [g] | Difference ([2]; retained on US mesh sieve #80, opening size 180 micron) [g] | Difference ([2]; retained on US mesh sieve #100, opening size 150 micron) [g] | Difference ([2]; retained on US mesh sieve #140, opening size 106 micron) [g] | SMILES
1 | 99 | 99 |  |  |  |  |  |  |  |  |  |  |  |  |  |  | CSCC[C@H](N)C(=O)O [Met Reference Standard (99.9% purity)]
2 |  |  | 7.41 | 7.4 wt % of total output | 2.6 wt % of total output | 34.8 wt % of total output | 33.9 wt % of total output | 11.9 wt % of total output | 5.3 wt % of total output | 4.1 wt % of total output | 2.60 | 34.87 | 33.99 | 11.88 | 5.35 | 4.09 | Cl.N[C@@H](Cc1cnc[nH]1)C(=O)O.O
